Data published in PubChem BioAssay AID1963864 (Molecular Pharmacology Branch, DTP, NCI, 2024).

Test system: KRAS PDC multicell spheroid viability
Test: Anticancer human tumor 521955-158-R6-J3-PDC patient-derived pancreatic carcinoma cell line growth inhibition [KRAS2]
Settings: for IC50: curve of first compound; for viability, T/C: stronger effect = lower value
Description: Multicellular complex tumor spheroid response to RAS pathway inhibitors in combination with a targeted agents in patient-derived cell lines with oncogenic KRAS variants from multiple cancer types
A high-throughput screen of multi-cell type tumor spheroids was designed to identify active combinations of targeted small molecules and KRAS pathway inhibitors. Complex spheroids include a stromal component modeled by human endothelial cells (HUVEC) and fibroblasts modeled by human mesenchymal stem cells (MSCs). The concentration ranges selected for each drug and investigational agent were based upon clinically achievable concentrations if the clinical Cmax of the agent was known.
Compounds. The drugs and investigational agents: BI-3406 (NSC825286), BAY-293 (NSC824723), batoprotafib (TNO155; NSC825523), sotorasib (AMG 510; NSC818433), MRTX1257 (NSC819558), elimusertib (BAY 1895344; NSC800525), molibresib (GSK525762; NSC774829), temuterkib (LY3214996; NSC803410), venetoclax (NSC766270), alisertib (NSC759677), olaparib (NSC753686), talazoparib (NSC767125), erdafitinib (NSC781556), ipatasertib (NSC767898), cabozantinib (NSC761068), nintedanib (NSC756659), abemaciclib (NSC768073), docetaxel (NSC628503), trametinib (NSC758246), and sapanisertib (NSC764658) were obtained from the National Cancer Institute (NCI) Developmental Therapeutics Program Chemical Repository. The FDA-approved anticancer drug set is available from the Developmental Therapeutics Program. […] The stock solutions were prepared in dimethyl sulfoxide (DMSO, Sigma-Aldrich, St. Louis, MO, cat. D2650) at 800-fold the tested concentration and stored at -70 degrees C prior to their use. All drugs and investigational agents were tested over a range starting from a high concentration at or near the clinical Cmax and decreasing in half-log increments. If the clinical Cmax for an agent had not been determined, the highest concentration tested was 10 microM.
Cell Culture. All cells were maintained in an incubator at 37 degrees C and 5% CO2 with 95% humidity. The PDC lines were cultured according to standard operating procedures established by the NCI PDMR (https://pdmr.cancer.gov/sops/default.htm). Briefly, all PDCs were thawed and cultured in Matrigel-coated flasks prepared with a working solution of 1X Ham's F-12 nutrient mix, without supplementation (Invitrogen, Waltham, MA, cat. 11765054), 100 U/mL penicillin-streptomycin (Invitrogen, cat. 15140122), and 2.5% Matrigel (Corning Inc., Corning, NY, cat. 354248) for the first three passages. All PDCs were cultured in complete DMEM/F-12 media containing advanced DMEM/F-12 (Invitrogen, cat. 12634028), 4.9% defined fetal bovine serum, heat inactivated (HyClone Laboratories Inc., Logan, UT, cat. SH30070.03HI), 389 ng/mL hydrocortisone (Sigma-Aldrich, cat. H4001), 9.7 ng/mL human EGF recombinant protein (Invitrogen, cat. PHG0313), 23.4 microg/mL adenine (Sigma-Aldrich, cat. A2786), 97.3 U/mL penicillin-streptomycin (Invitrogen, cat. 15140122), 1.9 mM L-glutamine (Invitrogen, cat. 25030081), and 9.7 microM Y-27632 dihydrochloride (Tocris Bioscience, Bristol, United Kingdom, cat. 1254). The PDCs were cultured in complete DMEM/F12 media without 9.7 microM Y-27632 dihydrochloride for at least two passages prior to the screen. The established cell line HOP-62 was cultured in RPMI 1640 medium, HEPES (Invitrogen, cat. 22400105) with 10% defined fetal bovine serum (HyClone Laboratories Inc., cat. SH30070.03) and 2 mM L-glutamine (Invitrogen, cat. 25030081). The pooled donor HUVEC were cultured in endothelial cell growth medium 2 (PromoCell, Heidelberg, Germany, cat. C-22011) and the hMSC were cultured in mesenchymal stem cell growth medium 2 (PromoCell, cat. C-28009). For all experiments, HUVEC and hMSC were used at passages </=5, while the malignant cell lines were used at passages </=15. […]

[1] = second compound 0.1 µM, first compound 0.0316 µM
[2] = second compound 0.1 µM, first compound 0.1 µM
[3] = second compound 0.1 µM, first compound 0.316 µM
[4] = second compound 0.1 µM, first compound 1 µM
[5] = second compound 0.1 µM, first compound 3.16 µM
[6] = second compound 0.1 µM, first compound 10 µM
[7] = second compound 0.316 µM, first compound 0.0316 µM
[8] = second compound 0.316 µM, first compound 0.1 µM
[9] = second compound 0.316 µM, first compound 0.316 µM
[10] = second compound 0.316 µM, first compound 1 µM
[11] = second compound 0.316 µM, first compound 3.16 µM
[12] = second compound 0.316 µM, first compound 10 µM
[13] = second compound 1 µM, first compound 0.0316 µM
[14] = second compound 1 µM, first compound 0.1 µM
[15] = second compound 1 µM, first compound 0.316 µM
[16] = second compound 1 µM, first compound 1 µM
[17] = second compound 1 µM, first compound 3.16 µM
[18] = second compound 1 µM, first compound 10 µM
[19] = second compound 3.16 µM, first compound 0.0316 µM
[20] = second compound 3.16 µM, first compound 0.1 µM
[21] = second compound 3.16 µM, first compound 0.316 µM
[22] = second compound 3.16 µM, first compound 1 µM
[23] = second compound 3.16 µM, first compound 3.16 µM
[24] = second compound 3.16 µM, first compound 10 µM
[25] = second compound 10 µM, first compound 0.0316 µM
[26] = second compound 10 µM, first compound 0.1 µM
[27] = second compound 10 µM, first compound 0.316 µM
[28] = second compound 10 µM, first compound 1 µM
[29] = second compound 10 µM, first compound 3.16 µM
[30] = second compound 10 µM, first compound 10 µM
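Note: drug exposure lasted seven days.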
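Throughout, for viability, T/C: 100% = DMSO vehicle wells and lower means fewer viable cells.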

| SMILES | IC50 (second compound 0.1 µM) | IC50 (second compound 0.316 µM) | IC50 (second compound 1 µM) | IC50 (second compound 3.16 µM) | IC50 (second compound 10 µM) | viability, T/C [1] | viability, T/C [2] | viability, T/C [3] | viability, T/C [4] | viability, T/C [5] | viability, T/C [6] | viability, T/C [7] | viability, T/C [8] | viability, T/C [9] | viability, T/C [10] | viability, T/C [11] | viability, T/C [12] | viability, T/C [13] | viability, T/C [14] | viability, T/C [15] | other results |
| --- | --- | --- | --- | --- | --- | --- | --- | --- | --- | --- | --- | --- | --- | --- | --- | --- | --- | --- | --- | --- | --- |
| COC(=O)c1ccc2c(C(=Nc3ccc(N(C)C(=O)CN4CCN(C)CC4)cc3)c3ccccc3)c(O)[nH]c2c1 + C=CC(=O)N1CCN(c2nc(=O)n(-c3c(C)ccnc3C(C)C)c3nc(-c4c(O)cccc4F)c(F)cc23)C(C)C1 | 4.73 µM | 3.96 µM | 3.14 µM | 3.84 µM | 3.77 µM | 96.2% | 102% | 116% | 119% | 76.8% | 0.24% | 92.8% | 108% | 120% | 128% | 61.9% | 0.9% | 103% | 110% | 119% | viability, T/C [16]: 128%; viability, T/C [17]: 49.6%; viability, T/C [18]: 3.61%; viability, T/C [19]: 108%; viability, T/C [20]: 94.6%; viability, T/C [21]: 94.2%; viability, T/C [22]: 123%; viability, T/C [23]: 59.9%; viability, T/C [24]: 1.53%; viability, T/C [25]: 82.5%; viability, T/C [26]: 83.3%; viability, T/C [27]: 88.9%; viability, T/C [28]: 89%; viability, T/C [29]: 59%; viability, T/C [30]: 0.68% |
| O=C(c1cc(Cc2n[nH]c(=O)c3ccccc23)ccc1F)N1CCN(C(=O)C2CC2)CC1 + C=CC(=O)N1CCN(c2nc(=O)n(-c3c(C)ccnc3C(C)C)c3nc(-c4c(O)cccc4F)c(F)cc23)C(C)C1 | > 10 µM | > 10 µM | > 10 µM | > 10 µM | > 10 µM | 110% | 103% | 113% | 96.1% | 101% | 96.2% | 118% | 118% | 106% | 104% | 93.8% | 111% | 118% | 114% | 110% | viability, T/C [16]: 99.3%; viability, T/C [17]: 99.7%; viability, T/C [18]: 111%; viability, T/C [19]: 103%; viability, T/C [20]: 105%; viability, T/C [21]: 95.4%; viability, T/C [22]: 104%; viability, T/C [23]: 98.2%; viability, T/C [24]: 81.5%; viability, T/C [25]: 84.4%; viability, T/C [26]: 84.7%; viability, T/C [27]: 87.1%; viability, T/C [28]: 84%; viability, T/C [29]: 84.2%; viability, T/C [30]: 83.9% |
